Data as given in PubChem BioAssay (NCI).
Several values for one entry are separate records, joined by “and”; a condition that tells them apart may be missing. Equal entries are not always repeated.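 Where inhibition never reached the appropriate level, the endpoint shown equals the highest concentration tested. Otherwise, values were interpolated linearly from a five-concentration, 48-hour dose response in 96-well plates. GI50 is the concentration that inhibits growth by half. TGI: total growth inhibition.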

Columns and labels:
Assay in all cases: inhibition of tumour cell growth, NCI panel, 48 h
OVCAR-5 ovarian = tested on: OVCAR-5 ovarian
SF-268 CNS = tested on: SF-268 CNS
NCI-H522 lung = tested on: NCI-H522 lung
LOX IMVI melanoma = tested on: LOX IMVI melanoma
NCI-H23 lung = tested on: NCI-H23 lung
K-562 leukemia = tested on: K-562 leukemia
RXF 393 renal = tested on: RXF 393 renal
BT-549 breast = tested on: BT-549 breast
UACC-62 melanoma = tested on: UACC-62 melanoma
U251 CNS = tested on: U251 CNS

Structure (SMILES) | GI50 (OVCAR-5 ovarian) | TGI (OVCAR-5 ovarian) | GI50 (SF-268 CNS) | TGI (SF-268 CNS) | GI50 (NCI-H522 lung) | TGI (NCI-H522 lung) | GI50 (LOX IMVI melanoma) | TGI (LOX IMVI melanoma) | GI50 (NCI-H23 lung) | TGI (NCI-H23 lung) | GI50 (K-562 leukemia) | TGI (K-562 leukemia) | GI50 (RXF 393 renal) [µM] | TGI (RXF 393 renal) | GI50 (BT-549 breast) | TGI (BT-549 breast) | GI50 (UACC-62 melanoma) | TGI (UACC-62 melanoma) | GI50 (U251 CNS) | TGI (U251 CNS)
CC1=C[C@H]2c3c(c(O)c(O)c4oc5cc(O)cc(O)c5c(=O)c34)[C@H](c3cc(O)c(O)c4oc5cc(O)cc(O)c5c(=O)c34)[C@H]2C(C)(C)C1 | 2.71 µM and 2.1 µM | 10.5 µM and 6.58 µM | 2.14 µM and 2.09 µM | 11.3 µM and 11.8 µM | 1.3 µM and 1.34 µM | 3.04 µM and 4.56 µM | 1.12 µM and 0.87 µM | 2.36 µM and 2.19 µM | 1.04 µM and 1.21 µM | 2.95 µM and 3.39 µM | 0.477 µM and 0.536 µM | 10.3 µM and > 100 µM | 1.76 | 4.3 µM and 4.04 µM | 0.664 µM and 1.87 µM | 8.48 µM and 6.24 µM | 1.18 µM and 1.31 µM | 2.59 µM and 3.07 µM | 0.789 µM and 1.08 µM | 3.26 µM and 17 µM
O=C(Cc1ccccc1)Nc1nnc(CCSCCc2nnc(NC(=O)Cc3ccccc3)s2)s1 | > 100 µM | > 100 µM | 12.3 µM | 62 µM | 8.41 µM | > 100 µM | 1.72 µM | 11.1 µM | 28.8 µM | > 100 µM | 1.34 µM | > 100 µM | 17.9 | 68.9 µM | 5.18 µM | 74.8 µM | 19.2 µM | > 100 µM | 4.1 µM | 18.3 µM
OC(COc1ccc(Cl)cc1Cl)CN1CCCC1 (centres undefined) |  | > 100 µM |  | > 100 µM |  | > 100 µM |  | > 100 µM |  | > 100 µM |  | > 100 µM |  | > 100 µM |  | > 100 µM |  | 50.1 µM |  | > 100 µM
Cc1cc(C)cc(Nc2nccc(-c3c(-c4ccc(F)cc4)ncn3C3CCNCC3)n2)c1 | 1.67 µM | 3.98 µM | 1.48 µM | 3.96 µM | 1.5 µM | 3.45 µM | 1.54 µM | 2.88 µM | 1.88 µM | 4.21 µM | 1.03 µM | 3.59 µM | 1.39 | 2.92 µM | 1.52 µM | 3.11 µM | 1.55 µM | 2.95 µM | 1.65 µM | 3.25 µM
COc1cc2c(cc1OCCCCCCNC(=O)c1cc3ccccc3[nH]1)N=CC1CCCN1C2=O (centres undefined) | > 100 µM | > 100 µM | 6.8 µM | 26 µM | 18.7 µM | 88.1 µM | 31.8 µM | > 100 µM | 51 µM | > 100 µM | 30.5 µM | > 100 µM | 35.3 | 54.6 µM | 21.7 µM | 74.2 µM | 39.5 µM | > 100 µM | 40 µM | > 100 µM
CC(=O)NNC(=O)c1nn(-c2ccc(Cl)cc2)cc1OC(C)=O | > 83.5 µM | > 100 µM | 8.85 µM | > 71.3 µM | 35.5 µM | > 100 µM | 22.5 µM | > 100 µM | 22.2 µM | 97.2 µM | 32.9 µM | > 100 µM | 16.9 | > 83.2 µM | 28.8 µM | > 100 µM | 19.8 µM | > 65.3 µM | 11.8 µM | > 100 µM
CC1OC(OC2C(OC3C[C@@]4(C)C(C[C@H](O)[C@H]5[C@H](C6(C)CCC(C(C)(C)O)O6)CCC54C)[C@]4(C)CC[C@@H](O)C(C)(C)C34)OC(CO)C(O)C2O)C(O)C(O)C1O (some centres undefined) (tested in a mixture with another compound) |  | > 100 µM |  | > 100 µM |  | > 100 µM |  | > 100 µM |  | > 100 µM |  | > 100 µM |  | > 100 µM |  | > 100 µM |  | > 100 µM |  | > 100 µM
O=C1Nc2ccccc2C12CC(c1ccccc1)=NN2 (centres undefined) | 16.4 µM | 96.1 µM | 11.9 µM | > 100 µM | 4.66 µM | 76 µM | 6.46 µM | 87.4 µM | 9.07 µM | > 100 µM | 3.98 µM | > 100 µM | 3.78 | 36.6 µM | 6.35 µM | > 100 µM | 4.38 µM | > 100 µM | 5.4 µM | > 100 µM
c1ccc(Cn2cc3c(c2)-c2oncc2CC3)cc1 | 2.3 µM | > 92.4 µM | 1.78 µM | 38.9 µM | 1.89 µM | 8.13 µM | 1.66 µM | > 57.9 µM | 1.77 µM | > 100 µM | 0.387 µM | > 100 µM | 1.12 | 4.76 µM | 4.31 µM | 98.2 µM | 0.723 µM | 97.3 µM | 0.552 µM | 33 µM
CN(C)CCCNC(=O)c1cc2c3ccccc3[nH]c2c2ncccc12 | 20.3 µM | > 100 µM | 16.7 µM | 64.1 µM | 14.5 µM | 37.7 µM | 8.34 µM | 23.8 µM | 14.6 µM | 29.2 µM | 27.6 µM | > 100 µM | 13.2 | 39 µM | 9.33 µM | 25.1 µM | 16 µM | 30.1 µM | 16.7 µM | 70 µM
BrP(NC1CCCCCC1)(c1ccccc1)(c1ccccc1)c1ccccc1 |  | 52.7 µM |  | 11.1 µM |  | 8.5 µM |  | 10.4 µM |  | 27.4 µM |  | > 100 µM |  | 5.57 µM |  | 9.57 µM |  | 15.9 µM |  | 13.4 µM
Cc1nc2ccccc2c(=O)n1NC(=O)Cc1ccccc1 |  | > 100 µM |  | > 100 µM |  | > 100 µM |  | > 100 µM |  | > 100 µM |  | > 100 µM |  | > 100 µM |  | > 100 µM |  | > 100 µM |  | > 100 µM
COc1cc(C2c3cc4c(cc3C3OC(=O)C2C3CO)OCO4)cc(OC)c1OC (centres undefined) | 0.0539 µM | > 100 µM | 0.0395 µM | > 100 µM | < 0.01 µM | 0.0351 µM | < 0.01 µM | > 100 µM | 0.0317 µM | > 100 µM | 0.0205 µM | > 100 µM | < 0.0162 |  | 0.0334 µM | 9.27 µM | < 0.0136 µM | > 100 µM | 0.0354 µM | > 100 µM
NC(=O)Nc1ccc2ncnc(Nc3ccc(Cl)cc3)c2c1 | 15.8 µM | > 95 µM | 21.7 µM | > 100 µM | 6.08 µM | 36 µM | 18.1 µM | 57.7 µM | 21.6 µM | 69 µM | 28.9 µM | > 100 µM | 17 | 83.6 µM | 18.9 µM | 67.4 µM | 14.3 µM | 37.3 µM | 25.4 µM | > 100 µM
c1ccc(-c2n(Cc3ccc4ccccc4n3)c3ccccc3[n+]2Cc2ccc3ccccc3n2)cc1 | 0.376 µM | 2 µM | 0.333 µM | 1.35 µM | 0.356 µM | 1.69 µM | 0.261 µM | 1.06 µM | 0.262 µM | 1.14 µM | 0.141 µM | 1.34 µM | 0.304 | 1.54 µM | 0.31 µM | 1.32 µM | 0.306 µM | 1.24 µM | 0.243 µM | 1.19 µM
Cc1cc[c-]cc1.Fc1c[c-]c(-c2ccccn2)c(F)c1.N#CCC[PH+](CCC#N)c1ccccc1.[Pt+2] | 3.79 µM | 19.6 µM | 3.19 µM | 39.5 µM | 1.96 µM | 5.58 µM | 2.26 µM | 5.18 µM | 3.45 µM | 12.9 µM | 3.48 µM | > 100 µM | 2.07 | 4.78 µM | 3.22 µM | 31.6 µM | 1.79 µM | 4.43 µM | 3.61 µM | 15.4 µM
COC(=O)[C@]12CC[C@@H](C)[C@H](C)[C@@H]1C1=CC[C@@H]3[C@@]4(C)C(c5ncon5)=C[C@@](C)(CO)C4=CC[C@@]3(C)[C@]1(C)CC2 | 5.2 µM | 26.8 µM | 2.34 µM | 6.89 µM | 1.71 µM | 3.57 µM | 1.62 µM | 2.97 µM | 2.01 µM | 4.52 µM | 2.22 µM | 4.82 µM | 1.75 | 3.33 µM | 2.39 µM | 6.38 µM | 1.89 µM | 4.02 µM | 2.02 µM | 3.84 µM
CCOC(=O)Nc1nc2c(F)c(F)c(F)cc2s1 | > 100 µM | > 100 µM | 43.8 µM | > 100 µM | 36.9 µM | > 100 µM | > 100 µM | > 100 µM | 89 µM | > 100 µM | > 100 µM | > 100 µM | 29.6 | > 100 µM | 58.3 µM | > 100 µM | 19.7 µM | > 100 µM | 36.7 µM | > 100 µM
